# What was measured:
# [1] = system: Normal hepatocytes of FL83B mice; assay: Cell viability analysis (1), normal hepatocytes, MTS kit; type: cell-based; conditions: for Cell viability (%, relative to the blank group): 24 hours
# Experimental: (§1) Normal hepatocytes of FL83B mice are divided into several groups (FL83B 1×10^4 cells/well), an amount of cells in each of the groups is treated under different conditions respectively and cultured for 24 hours. Then, the commercially available MTS cell viability analysis kit (CellTiter-Glo® One Solution Assay) is used to analyze the cell viability of each of the groups, the treatment condition of each of the groups of cells and the corresponding survival rate are shown in Table 1 to Table 3 below.
# [2] = system: Normal hepatocytes of FL83B mice treated with 10 mM acetaminophen (damaged hepatic cells); assay: Cell viability analysis (2), hepatocytes damaged with 10 mM acetaminophen; type: cell-based; conditions: after acetaminophen damage
# Experimental: (§2) Normal hepatocytes of FL83B mice are divided into several groups (FL83B 1×10^4 cells/well), and treated with 10 mM acetaminophen for 24 hours respectively to make the hepatic cells in a damaged state, the acetaminophen is removed and then the hepatic cells are treated with different concentrations of the Antrodin A and/or the DMB for 24 hours. Then, the commercially available MTS cell viability analysis kit (CellTiter-Glo® One Solution Assay) is used to analyze the cell viability of each of the groups, the treatment condition of each of the groups of cells and the corresponding survival rate are shown in Table 4 to Table 6 below.
# c-Met = assay: Gene expression analysis, real-time qPCR, c-Met; type: cell-based, mice
# Experimental: as §2
# (§3) Real-time qPCR kits are used to analyze the gene expression in cells treated with different concentrations of the Antrodin A and the DMB in Example 2, and the results are shown in Tables 7 to 9 below.
# Notch-2 = assay: Gene expression analysis, real-time qPCR, Notch-2 RNA; type: cell-based, mice
# Experimental: as §2, §3
# [3] = Cell viability analysis (1), normal hepatocytes, MTS kit; type: cell-based, mice; conditions: mouse, FL83B normal hepatocytes, 24 hours, read-out: Cell viability (%, relative to the blank group)
# Experimental: as §1
smiles,measurement,setting,value
CC(C)=CCOc1ccc(C2=C(CC(C)C)C(=O)OC2=O)cc1 [Antrodin A],"Cell viability (%, relative to the blank group)",[1]; Antrodin A 8.75 ppm,95.8 ± 4.8%
same,"Cell viability (%, relative to the blank group)",[1]; Antrodin A 17.5 ppm,107.1 ± 1.2%
same,"Cell viability (%, relative to the blank group)",[1]; Antrodin A 35 ppm,106.8 ± 6.5%
same,"Cell viability (%, relative to the blank group)",[1]; Antrodin A 70 ppm,108.5 ± 5.7%
same,"Cell viability (%, relative to the blank group)",[1]; Antrodin A 140 ppm,50.8 ± 4.4%
same,activity and survival rate of the normal hepatic cells (in words),[1]; concentration of 8.75 to 70 ppm,capable of effectively maintaining and enhancing the activity and survival rate of the normal hepatic cells
same,toxicity to hepatic cells (in words),[1]; concentration of 140 ppm,toxic to hepatic cells
same,repair of damaged hepatic cells (in words),[2],capable of repairing the damaged hepatic cells and increasing the activity of the hepatic cells
same,"Cell viability (%, relative to the blank group)","[2]; Antrodin A 17.5 ppm, 24 hours",101.9 ± 10.7%
same,"Cell viability (%, relative to the blank group)","[2]; Antrodin A 35 ppm, 24 hours",90.2 ± 9.9%
same,"Cell viability (%, relative to the blank group)","[2]; Antrodin A 70 ppm, 24 hours",102.7 ± 3.3%
same,expression level of c-Met in damaged hepatic cells (in words),c-Met,increase the expression levels of c-Met and Notch
same,expression level of Notch in damaged hepatic cells (in words),Notch-2,increase the expression levels of c-Met and Notch
"COc1cc(C)c(OC)c2c1OCO2 [DMB, 4,7-Dimethoxy-5-methyl-1,3-benzodioxole]","viability at 24 h, 1.25 ppm",[3]; DMB 1.25 ppm,112 ± 2.4%
same,"viability at 24 h, 2.5 ppm",[3]; DMB 2.5 ppm,114 ± 1.5%
same,"viability at 24 h, 5 ppm",[3]; DMB 5 ppm,115 ± 2%
same,"viability at 24 h, 10 ppm",[3]; DMB 10 ppm,113 ± 3.4%
same,"viability at 24 h, 20 ppm",[3]; DMB 20 ppm,111 ± 4%
same,toxicity to the normal hepatic cells (in words),[1]; various concentrations,does not cause toxicity to the normal hepatic cells
same,viability at 2.5 ppm,"[2]; Mus musculus, FL83B, DMB 2.5 ppm, 24 hours, read-out: Cell viability (%, relative to the blank group)",114 ± 3.9%
same,viability at 5 ppm,"[2]; Mus musculus, FL83B, DMB 5 ppm, 24 hours, read-out: Cell viability (%, relative to the blank group)",104 ± 4.4%
same,viability at 10 ppm,"[2]; Mus musculus, FL83B, DMB 10 ppm, 24 hours, read-out: Cell viability (%, relative to the blank group)",78.2 ± 8.8%
same,viability at 17.5 ppm,"[2]; Mus musculus, FL83B, DMB 17.5 ppm, 24 hours, read-out: Cell viability (%, relative to the blank group)",103 ± 7.7%
same,repair of damaged hepatic cells (in words),[2],capable of repairing the damaged hepatic cells and increasing the activity of the hepatic cells
same,expression level of c-Met in damaged hepatic cells (in words),c-Met,increase the expression levels of c-Met and Notch
same,expression level of Notch in damaged hepatic cells (in words),Notch-2,increase the expression levels of c-Met and Notch
